In patent US8945540B2, “Compositions for enhancing the antibacterial activity of myeloperoxidase and methods of use thereof” (Exoxemis, Inc., priority 2008, dated 2015):
Where two headings read alike, the source gives them in different places.

Assays:
[1] = tested on: Staphylococcus aureus; experiment: Microbicidal activity of the myeloperoxidase system (p-MPO, glucose oxidase, glucose) with amino acids in the presence of blood, CFU plate counts; synergy determination from these CFU; assay type: cell-based; details: for Average Viability CFU/ml 50 min / Log Reduction 50 min: single amino acid 2.5 mM, MPO 4.7 U/ml, GO 4.2 U/ml
Method: Bacterial suspensions, specifically Staphylococcus aureus in this example, were prepared by the shake flask method to achieve late log to early stationary phase growth. Bacteria were grown 24 hours in trypticase soy broth (TSB) at 35° C. The cultures were centrifuged at 4,000 rpm for 10 minutes and the supernatants removed. The pellet was collected and washed twice with sterile 0.9% normal saline (NS). The washed microorganisms were suspended and diluted with normal saline to a 3 McFarland standard, i.e., approximately 10^9 bacteria colony forming units (CFU) per mL. Actual colony counts are confirmed by serial dilutions (10^−1 to 10^−5 or 10^−6) plated on TSA and incubated overnight at 35° C. To obtain an approximate final working target inoculum of 10^7 CFU/mL, 15 microliters of organisms per mL of final reaction mixture are used.
Glucose oxidase (GO) from Aspergillus Niger was purchased from Biozyme, Inc., UK, Cat #GO3A, 270 U/mg). Porcine Myeloperoxidase (p-MPO) (Exoxemis, Inc., Little Rock, Ark. U.S.A., 375 U/mg). Sterile stock solutions of D-glucose and sodium chloride were prepared and used at a final concentration of 150 mM each. L-Lysine hydrochloride (Spectrum Chemical Cat #L1142) was prepared as a 100 mM stock solution. Catalase (Sigma, Cat #C-40) was prepared as a 1% stock solution in sterile 0.9% normal saline. Blood was collected by venipuncture and used as whole blood within the same day.
Staphylococcus aureus were used to give a final target concentration of 2-3×10^7 CFU (7.4 log 10) per mL and venous whole blood was used to give a final concentration of 3%. Glucose was added to the reaction mixtures to a final concentration of 150 mM, which initiated the microbicidal reaction. The final volume of the reaction mixtures was 1 mL. The reactions were allowed to run from 30 minutes to 2 hours, as needed, at room temperature or at 37° C. in a dry bath. At the specified time points the reaction mixtures were treated with 100 microliters of a catalase solution, containing a minimum of 100 units/μL, to consume remaining peroxide and terminate the oxidative killing. Serial dilution plate counts were performed from the contents of each vial in sterile saline and inoculated onto trypticase soy agar (TSA) for quantitative culture. Plates were then incubated at 37° C. and counts taken at 24 hours. […] The results are shown in Table 1, as the average of 2 replicates.
The amino acids alone, in the absence of MPO were tested to rule out their microbicidal activity. The results are shown in Table 2 to Table 6, as the average of 2 replicates.
The amino acid analogues alone, in the absence of MPO, were tested to rule out their microbicidal activity. […]
The effect of two-way combinations of individual amino acids with L-isoleucine, as potential enhancing agents, for MPO microbicidal action in the presence of blood, was therefore examined by following the procedure of Example 5.
The Actual CFU observed for the pair is then divided by the Predicted CFU and multiplied by 100 to calculate the % of Predicted value. This value is then to be compared to the threshold value, discussed in the next section, to determine whether the pair are synergistic, antagonistic, or additive.
Calculation of appropriate threshold values for determination of synergism and antagonism was based upon the variability of replicated CFU survivor measures.

[2] = tested on: Staphylococcus aureus; experiment: Control: microbicidal activity of the amino acid or analogue alone (no glucose, MPO, glucose oxidase) in the presence of blood; assay type: cell-based; details: for log reduction at 5000 µM: Staphylococcus aureus, 1 h, read-out: Log Reduction 60 min
Description: As a control to determine the microbicidal activity of the amino acids alone, the foregoing procedure was followed without replication, except in the absence of glucose, MPO, and glucose oxidase.

[3] = Table 3, amino acid 5 mM (none: 0 mM), MPO 38 U/ml, GO 33.3 U/ml, blood
[4] = amino acid alone 5 mM, MPO 0, GO 0, no glucose, blood, without replication
[5] = Table 2, amino acid 5 mM (none: 0 mM), MPO 38 U/ml, GO 33.3 U/ml, blood
[6] = Table 11, in the presence of blood, 50 min
[7] = Table 14, in the presence of blood, 50 min
[8] = MPO 100 μg/mL, AA 20 mM, 30 min
[9] = MPO 100 μg/mL, AA 20 mM, 60 min
[10] = Table 10, in the presence of blood, 50 min
[11] = Table 13, in the presence of blood, 50 min
[12] = Table 4, amino acid 5 mM (none: 0 mM), MPO 38 U/ml, GO 33.3 U/ml, blood
[13] = Table 7, amino acid analogue 5 mM, MPO 38 U/ml, GO 33.3 U/ml, blood
[14] = amino acid analogue alone 5 mM, MPO 0, GO 0, no glucose, blood

Row | SMILES | log reduction at 5000 µM [2, 4] | Average Viability CFU/ml 60 min [2, 4] [CFU/ml] | Average Viability CFU/ml 60 min [1, 5] [CFU/ml] | Log 10 (CFU + 1) Survivors 60 min [1, 5] | Log Reduction 60 min [1, 5] | Log 10 (CFU + 1) Survivors ([1]; MPO 25 μg/mL, AA 5 mM, 30 min) | Log 10 (CFU + 1) Survivors ([1]; MPO 25 μg/mL, AA 5 mM, 60 min) | Log 10 (CFU + 1) Survivors ([1]; MPO 25 μg/mL, AA […], 30 min) | Log 10 (CFU + 1) Survivors ([1]; MPO 25 μg/mL, AA […], 60 min) | Log 10 (CFU + 1) Survivors ([1]; MPO 100 μg/mL, AA 5 mM, 30 min) | Log 10 (CFU + 1) Survivors ([1]; MPO 100 μg/mL, AA 5 mM, 60 min) | Log 10 (CFU + 1) Survivors [1, 8] | Log 10 (CFU + 1) Survivors [1, 9] | further results
1 | CC(=O)C(=O)O [Pyruvic acid] | 0 | 22100000 |  |  |  |  |  |  |  |  |  |  |  | Average Viability CFU/ml 60 min [1, 3]: 4900000 CFU/ml; Log 10 (CFU + 1) Survivors 60 min [1, 3]: 6.7; Log Reduction 60 min [1, 3]: 0.6
2 | N=C(N)NCCC[C@H](N)C(=O)O [L-Arginine] |  | 23600000 | 5450000 | 6.7 | 0.6 |  |  |  |  |  |  |  |  | enhancement of MPO microbicidal activity (in words) ([1]; amino acid 5 mM, MPO 38 U/ml, GO 33.3 U/ml, blood): essentially inactive; log reduction at 5000 µM [2]: 0
3 | CSCC[C@H](N)C(=O)O [L-Methionine] | 0.1 | 19800000 | 6600000 | 6.8 | 0.6 |  |  |  |  |  |  |  |  | 
4 | COC(=O)[C@@H](C)N [D-Ala methyl ester] |  |  |  |  |  |  |  |  |  |  |  |  |  | Average Viability CFU/ml 50 min [1, 6]: 9500000 CFU/ml; Log Reduction 50 min [1, 6]: 0.5; Average Viability CFU/ml 50 min [1, 7]: 8850000 CFU/ml; Log Reduction 50 min [1, 7]: 0.5
5 | NCC(=O)O [Glycine] | 0 | 25300000 | 0 | 0.0 | 7.4 | 7.2 | 6.8 | 7.3 | 6.9 | 6.0 | 0.0 | 7.0 | 0.0 | Average Viability CFU/ml 50 min [1, 10]: 9100 CFU/ml; Log Reduction 50 min [1, 10]: 3.4; Average Viability CFU/ml 50 min [1, 11]: 10050 CFU/ml; Log Reduction 50 min [1, 11]: 3.4; Average Viability CFU/ml 50 min ([1]; blood): 7050 CFU/ml; Log Reduction 50 min ([1]; blood): 3.5; CFU survivors, amino acid acting separately ([1]; standard conditions of Example 5 (2.5 μmol/mL; MPO 4.7 U/mL; GO 4.2 U/mL)): 9300 CFU
6 | NCCCC[C@@H](N)C(=O)O [D-Lysine] |  | 25100000 |  |  |  |  |  |  |  |  |  |  |  | Average Viability CFU/ml 60 min [1, 12]: 5050000 CFU/ml; Log Reduction 60 min [1, 12]: 0.7; log reduction at 5000 µM [2]: 0
7 | COC(=O)[C@@H](C)N [D-Alanine methyl ester] |  |  |  |  |  | 0.0 | 0.0 | 0.0 | 0.0 | 0.0 | 0.0 | 0.0 | 0.0 | Average Viability CFU/ml 50 min ([1]; blood): 5450000 CFU/ml; Log Reduction 50 min ([1]; blood): 0.6
8 | CCOC(=O)CC(C)N (centres unmarked) [Ethyl 3-aminobutyrate] |  |  |  |  |  |  |  |  |  |  |  |  |  | Average Viability CFU/ml 60 min [1, 13]: 0 CFU/ml; Log Reduction 60 min [1, 13]: 7.4; log reduction at 5000 µM [2, 14]: 0; Average Viability CFU/ml 60 min [2, 14]: 20900000 CFU/ml
9 | O=C(O)CNC(=O)c1ccccc1 [Hippuric acid] | 0 | 19700000 |  |  |  | 7.3 | 5.9 | 6.7 | 5.8 | 7.3 | 5.9 | 6.8 | 5.0 | Average Viability CFU/ml 60 min [1, 3]: 865000 CFU/ml; Log 10 (CFU + 1) Survivors 60 min [1, 3]: 5.9; Log Reduction 60 min [1, 3]: 1.4
